Consider 24 compounds from ChEMBL document CHEMBL1124557, “Pentadienyl carboxamide derivatives as antagonists of platelet-activating factor” (J Med Chem, 1989).

Test [1] has as its system Cavia porcellus. Put plainly: Ability to prevent PAF-induced bronchoconstriction in guinea pig when administered dose 0.5 mg/kg intravenously. It is filed as functional. The note with it: route intravenous.
Test [2] addresses Platelet-activating factor receptor (Cavia porcellus) (UniProt P21556). Put plainly: Ability to prevent PAF-induced bronchoconstriction in guinea pig when administered intravenously. It is filed as functional.
The target is the same in test [3]. As to the kind of experiment: Ability to prevent PAF-induced bronchoconstriction in guinea pig 2 hr after administration (50 mg/kg perorally). It is filed as functional, organism-based.
Test [4] relates to Cavia porcellus. Put plainly: Inhibitory activity against bronchoconstriction in guinea pig 2 hr after peroral administration of compound. It is filed as functional. The note with it: Lung, po, read-out: ID50 (the source's name).
Test [5] relates to Cavia porcellus. As to the kind of experiment: Ability to prevent PAF-induced bronchoconstriction in guinea pig when administered at a dose of 1 mg/kg intravenously. The note with it: route intravenous. In kind it is functional.
For test [6], the system named is Rattus norvegicus. As to the kind of experiment: PAF-induced capillary permeability changes are studied in rat skin test, after peroral administration of the compound. In kind it is functional. The note with it: po, read-out: ID50 (the source's name).
Test [7] relates to Cavia porcellus. As to the kind of experiment: PAF-induced capillary permeability changes are studied in guinea pig skin test, after peroral administration of the compound. In kind it is functional. The note with it: po, read-out: ID50 (the source's name).
In test [8] the test system is Cavia porcellus. As to the kind of experiment: Inhibition of PAF-induced bronchoconstriction in guinea pig 2 hr after p.o. administration. In kind it is functional. The note with it: po, read-out: ID50 (the source's name).
Test [9] relates to Rattus norvegicus. As to the kind of experiment: PAF-induced capillary permeability changes are studied in rat skin test, after intravenous administration of the compound. In kind it is functional. The note with it: read-out: ID50 (the source's name).
Test [10] relates to Cavia porcellus. Put plainly: PAF-induced capillary permeability changes are studied in guinea pig test, after intravenous administration of the compound. In kind it is functional. The note with it: read-out: ID50 (the source's name).
For test [11], the system named is Cavia porcellus. As to the kind of experiment: Ability to prevent PAF-induced bronchoconstriction in guinea pig 6 hr following 50 mg/kg p.o. administration. In kind it is functional. The note with it: route oral.
The subject of test [12] is Platelet-activating factor receptor (Canis familiaris). As to the kind of experiment: Compound was evaluated for inhibition of platelet activating factor binding activity in dog platelets using [3H]PAF as radioligand; NA means inactive.
The subject of test [13] is Cavia porcellus. As to the kind of experiment: Ability to prevent PAF-induced bronchoconstriction in guinea pig when administered dose 1 mg/kg intravenously. It is filed as functional. The note with it: route intravenous.
In test [14] the test system is Cavia porcellus. As to the kind of experiment: Ability to prevent PAF-induced bronchoconstriction in guinea pig 2 hr after administration of compound (50 mg/kg perorally). The note with it: po, read-out: ID50 (the source's name). In kind it is functional.

Sequence of Platelet-activating factor receptor (Cavia porcellus) (P21556 whole entry): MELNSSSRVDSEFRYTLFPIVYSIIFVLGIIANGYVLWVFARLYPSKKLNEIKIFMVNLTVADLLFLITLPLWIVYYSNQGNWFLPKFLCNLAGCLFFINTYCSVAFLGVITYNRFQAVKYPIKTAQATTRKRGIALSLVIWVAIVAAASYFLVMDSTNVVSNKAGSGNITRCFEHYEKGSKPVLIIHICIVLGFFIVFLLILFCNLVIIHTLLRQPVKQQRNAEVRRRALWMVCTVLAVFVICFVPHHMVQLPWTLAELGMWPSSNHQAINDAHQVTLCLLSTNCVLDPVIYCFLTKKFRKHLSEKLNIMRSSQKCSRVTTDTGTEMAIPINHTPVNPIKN

What is called inhibition in vivo is the change of the read-out against control, counted positive when it falls. Turning to `O=C(CCCCC=C(c1ccccc1)c1ccccc1)NCCCCc1cccnc1`, the inhibition in vivo at 0.5 mg/kg with Cavia porcellus [1] turned out to be 15%.
On the same count and under the same terms, to `O=C(CCC=C(c1ccccc1)c1ccccc1)NCCCCc1cccnc1` belongs 21%.
Broadly, the inhibition is how much of the control response was suppressed. A high value points to a strong effect. `O=C(C=C(c1ccccc1)c1ccccc1)NCCCCc1cccnc1`: in [2], the ID50 is 0.58 mg/kg. Moreover, the inhibition in test [3] amounted to 28%. Moreover, in the test on Cavia porcellus [1], the inhibition in vivo at 0.5 mg/kg came to 66%.
For `O=C(/C=C/C=C(c1ccc(F)cc1)c1ccc(F)cc1)NCCCCc1cccnc1`, in the test on Cavia porcellus [4], the ED50 stood at 28 mg/kg. The compound also registered an ID50 in test [2] of 0.38 mg/kg. The inhibition in vivo at 1 mg/kg with Cavia porcellus [5] was found to be 91%. In [3], this compound displayed an inhibition of 89%.
In turn, `Cc1nnc2n1-c1sc(CCC(=O)N3CCOCC3)cc1C(c1ccccc1Cl)=NC2` [APAFANT] returned an ID50 in test [2] of 0.03 mg/kg. Also, the ED50 in the test with Rattus norvegicus [6] came to 45 mg/kg; with Cavia porcellus [7] it was 35 mg/kg; with Cavia porcellus [8], 1 mg/kg; with Rattus norvegicus [9], 0.64 mg/kg; in the test on Cavia porcellus [10], 2.5 mg/kg. In the test on Cavia porcellus [5], the inhibition in vivo at 1 mg/kg was 99%. This compound displayed an inhibition in test [3] of 100%. In addition, the inhibition in vivo at 50 mg/kg in the test on Cavia porcellus [11] was found to be 100%.
Take `O=C(CCCC=C(c1ccccc1)c1ccccc1)NCCCCc1cccnc1`: the IC50 result in [12] was “Not Active”.
For the compound `O=C(/C=C\C=C(c1ccccc1)c1ccccc1)NCCCCc1cccnc1`, the inhibition in vivo at 0.5 mg/kg in the test with Cavia porcellus [1] was -1%.
With `CCCCCC/C(=C\C=C\C(=O)N[C@H](C)CCCc1cccnc1)c1ccc(OC)cc1`, the ID50 in test [2] worked out at 0.07 mg/kg. Besides, the ED50 with Cavia porcellus [8] was 8 mg/kg. For the same compound, the inhibition in vivo at 1 mg/kg in the test with Cavia porcellus [13] worked out at 100%. This compound gave an inhibition in [3] of 96%. Moreover, the inhibition in vivo at 50 mg/kg in the test on Cavia porcellus [11] turned out to be 14%.
Take `COc1ccc(C(=C/C=C/C(=O)N[C@H](C)CCCc2cccnc2)c2ccc(OC)cc2)cc1`: the ED50 worked out at 4 mg/kg with Cavia porcellus [4]; 25 mg/kg in the test on Rattus norvegicus [6]; 75 mg/kg in the test with Cavia porcellus [7]; 2 mg/kg in the test on Rattus norvegicus [9]; 15 mg/kg in the test with Cavia porcellus [10]. This compound also returned an ID50 in test [2] of 0.25 mg/kg. Further, the inhibition in vivo at 1 mg/kg with Cavia porcellus [5] worked out at 98%. For the same compound, in [3], the inhibition worked out at 98%. Also, the inhibition in vivo at 50 mg/kg in the test on Cavia porcellus [11] amounted to 93%.
`O=C(CC=C(c1ccccc1)c1ccccc1)NCCCCc1cccnc1`: in [12], the IC50 entry is listed as “Not Active”.
Consider `COc1ccc(/C(=C/C=C/C(=O)N[C@H](C)CCCc2cccnc2)C(C)C)cc1`, for which the ID50 in test [2] worked out at 0.41 mg/kg. In addition, the inhibition in vivo at 1 mg/kg in the test on Cavia porcellus [5] stood at 89%. Moreover, in the test with Cavia porcellus [8], the ED50 turned out to be 30 mg/kg. The inhibition in test [3] stood at 71%. Moreover, the inhibition in vivo at 50 mg/kg in the test with Cavia porcellus [11] turned out to be 20%.
In the same order, the values of `CC/C(=C\C=C\C(=O)N[C@H](C)CCCc1cccnc1)c1ccc(OC)cc1` are 0.68 mg/kg, 72%, 35 mg/kg, 84% and 9%.
For the compound `O=C(/C=C/C=C(c1cccc(F)c1)c1cccc(F)c1)NCCCCc1cccnc1`, in the test on Cavia porcellus [4], the ED50 is 50 mg/kg. The same compound had an ID50 in test [2] of 0.34 mg/kg. Moreover, the inhibition in vivo at 1 mg/kg in the test on Cavia porcellus [5] was determined as 71%. Besides, the inhibition in [3] was 37%.
Consider `CCCC/C(=C\C=C\C(=O)N[C@H](C)CCCc1cccnc1)c1ccc(OC)cc1`, for which the ID50 in test [2] was 0.68 mg/kg. Also, in the test on Cavia porcellus [5], the inhibition in vivo at 1 mg/kg was determined as 99%. In addition, in the test with Cavia porcellus [8], the ED50 came out at 12 mg/kg. Moreover, the inhibition in test [3] worked out at 98%. In addition, the inhibition in vivo at 50 mg/kg in the test on Cavia porcellus [11] was determined as 69%.
For `O=C(C/C=C/C=C(c1ccccc1)c1ccccc1)NCCCCc1cccnc1`, in the test on Cavia porcellus [14], the ED50 was 0.62 mg/kg. In addition, in test [3], the inhibition worked out at 35%. In the test with Cavia porcellus [1], the inhibition in vivo at 0.5 mg/kg worked out at 60%.
For `CC[C@H](CCCc1cccnc1)NC(=O)/C=C/C=C(c1ccc(OC)cc1)c1ccc(OC)cc1`, the ID50 in test [2] is 0.16 mg/kg. The inhibition in vivo at 1 mg/kg in the test on Cavia porcellus [5] was found to be 99%. Moreover, the ED50 with Cavia porcellus [8] came out at 6 mg/kg. For the same compound, the inhibition in [3] turned out to be 99%. The inhibition in vivo at 50 mg/kg in the test on Cavia porcellus [11] was 85%.
For the compound `CCCCCCCC/C(=C\C=C\C(=O)N[C@H](C)CCCc1cccnc1)c1ccc(OC)cc1`, the ID50 in test [2] was 0.1 mg/kg. The inhibition in vivo at 1 mg/kg in the test on Cavia porcellus [5] was 98%. Further, the ED50 with Cavia porcellus [8] amounted to 13 mg/kg. Further, the inhibition in [3] was 84%. The inhibition in vivo at 50 mg/kg in the test with Cavia porcellus [11] stood at 27%.
In the case of `CCCCC/C(=C\C=C\C(=O)N[C@H](C)CCCc1cccnc1)c1ccc(OC)cc1`, the ED50 in the test on Cavia porcellus [4] came out at 16 mg/kg; in the test on Rattus norvegicus [6], 70 mg/kg; in the test with Cavia porcellus [7], 65 mg/kg; in the test on Rattus norvegicus [9] it was 1.7 mg/kg; in the test with Cavia porcellus [10], 3 mg/kg. Besides, in test [2], the ID50 is 0.05 mg/kg. In addition, in the test on Cavia porcellus [5], the inhibition in vivo at 1 mg/kg came out at 99%. In addition, the inhibition in test [3] turned out to be 100%. Also, the inhibition in vivo at 50 mg/kg in the test with Cavia porcellus [11] was determined as 71%.
For the compound `COc1ccc(/C(=C/C=C/C(=O)N[C@H](C)CCCc2cccnc2)C2CCCCC2)cc1`, the ID50 in test [2] is 0.21 mg/kg. The inhibition in vivo at 1 mg/kg in the test on Cavia porcellus [5] stood at 73%. The ED50 in the test on Cavia porcellus [8] was determined as 10 mg/kg. The inhibition in test [3] was found to be 97%. Further, the inhibition in vivo at 50 mg/kg in the test with Cavia porcellus [11] came to 12%.
On the same counts, the results for `COc1ccc(C(=C/C=C/C(=O)NCCCCc2cccnc2)c2ccc(OC)cc2)cc1` are 0.25 mg/kg, 92%, 12 mg/kg, 82% and 71%.
On the same counts, the results for `COc1ccc(C(=C/C=C/C(=O)Nc2ccc(-c3cccnc3)cc2)c2ccc(OC)cc2)cc1` are 0.15 mg/kg, 97%, 29 mg/kg, 82% and 77%.
In the case of `O=C(CCCCCC=C(c1ccccc1)c1ccccc1)NCCCCc1cccnc1`, the IC50 entry in [12] was “Not Active”.
`COc1ccc(C(=C/C=C/C(=O)N[C@H](C)CCCc2cccnc2)c2ccc(OC)c(OC)c2)cc1OC` returned an ID50 in test [2] of 0.14 mg/kg. Also, the inhibition in vivo at 1 mg/kg with Cavia porcellus [5] turned out to be 99%. Also, the ED50 with Cavia porcellus [8] is 26 mg/kg. For the same compound, the inhibition in test [3] was found to be 67%. For the same compound, in the test with Cavia porcellus [11], the inhibition in vivo at 50 mg/kg was determined as 2%.
On the same counts, the results for `Cc1ccc(C(=C/C=C/C(=O)NCCCCc2cccnc2)c2ccc(C)cc2)cc1` are 0.26 mg/kg, 95%, 43 mg/kg, 67% and 11%.
